Results: the METLIN SMRT retention time set (Domingo-Almenara et al. 2019)

Assay: gradient 5% acetonitrile 3 min, to 50% in 2 min, to 85% in 15 min, held 3 min, 100 µL/min
Settings: column: Zorbax Extend-C18 2.1 x 50 mm; eluents: water / acetonitrile, 0.1% formic acid
Method in brief: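 Standards, all pure, were combined into mixtures of ~100 molecules and run at 100 μL/min on a Zorbax Extend-C18 column (2.1 × 50 mm, 1.8 μm) with water and acetonitrile, each containing 0.1% formic acid. A coupled quadrupole time-of-flight mass spectrometer operated in positive and negative ionization mode. Retention time values come from computationally picked adduct peaks, each inspected manually.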

| RP-LC retention time | Structure (SMILES) |
| --- | --- |
| 860 s | Cn1cc(-c2cc3n(n2)CCC(=O)N3CCCC(=O)Nc2ccc(F)cc2F)c2ccccc21 |
| 772 s | CCOc1ccccc1NC(=O)N1C[C@@H](F)C[C@H]1C(=O)N1CCCCC1 |
| 1210 s | COc1ccc(Cl)cc1NC(=O)c1cc(C2CC2)n2nccc2n1 |
| 968 s | CC1=NS(=O)(=O)N(C)C=C1C(=O)OCc1cccc(Cl)c1 |
| 1070 s | O=C(Cn1cccc(-c2nc(-c3ccc(Br)cc3)no2)c1=O)N1CCCc2ccccc21 |
| 1270 s | CCOC(=O)c1cc(C2CC2)nc2c1c(=O)n(Cc1cccc(C(F)(F)F)c1)c(=O)n2C |
| 684 s | O=C(c1ccsc1)N(CCc1ccccc1)Cc1ccccn1 |
| 693 s | Cc1onc(-c2ccccc2Cl)c1C(=O)N1CC2CC1C(=O)O2 (stereo unspecified) |
| 1090 s | CCCN1C(=O)COc2ccc(-c3csc(NC(=O)/C=C/c4ccc(OCC)c(OC)c4)n3)cc21 |
| 940 s | Cn1nc(-c2nnc(-c3ccccc3)o2)c2c1CCN(S(=O)(=O)c1cc(F)ccc1F)C2 |
| 589 s | Nc1nnc(Cc2ccc3c(c2)OCCO3)o1 |
| 796 s | O=C(C1CCCCC1)N1CCN(CC(F)(F)F)CC1 |
| 898 s | COc1cccc(NC(=O)CN2C(=O)CC(c3cccs3)=Nc3ccccc32)c1 |
| 595 s | COc1ccc(C(=O)N[C@@H]2CCC[C@@H]2C(=O)N(C)C)cn1 |
| 812 s | CCc1nc(-c2csc(S(=O)(=O)N3CCC(C(=O)NC(C)C)CC3)c2)no1 |
| 622 s | Cc1nnc(NC(=O)CSc2ccc(-c3sc(-c4cccnc4)nc3C)nn2)s1 |
| 904 s | COc1ccc(C2CC(=O)N(Cc3ccccc3)C(=O)C2)cc1OC |
| 1110 s | Cc1ccc(/C=C/c2nc(-c3ccc4c(c3)oc(=O)n4C)no2)cc1 |
| 888 s | CN(CC(=O)O)c1nc2c(Cl)cc(Cl)cc2s1 |
| 752 s | CCN1CCn2cc(S(=O)(=O)Nc3ccc(Cl)cc3F)cc2C1=O |
| 689 s | COc1ccc(OC)c(S(=O)(=O)N2CCCC(C(=O)Nc3ccc(C(N)=O)cc3)C2)c1 (stereo unspecified) |
| 747 s | COc1ccc(NC(=O)C2CCCN(c3ncnc4c3oc3ccccc34)C2)cc1 (stereo unspecified) |

| RP-LC retention time | Structure (SMILES) |
| --- | --- |
| 947 s | COCC(=O)N(CC(=O)N1CCc2sccc2C1COc1ccc(C(C)C)cc1)C1CC1 (stereo unspecified) |
| 715 s | c1ccc(-c2nnc(-c3ccncc3)o2)cc1 |
| 842 s | COc1cc2c(cc1OC)C(C(=O)NCC1COc3ccccc3O1)C(c1cccs1)N(C)C2=O (stereo unspecified) |
| 974 s | CC(=O)Oc1ccccc1C1=NN(C(C)=O)C(c2ccccc2Cl)O1 (stereo unspecified) |
| 738 s | CC1(C)C2CCC(CN=C(N)CSS(=O)(=O)O)C1C2 (stereo unspecified) |
| 786 s | C=CCNc1nc(-c2ccc([N+](=O)[O-])cc2)nc2ccccc12 |
| 823 s | Cc1ccc(CNC(=O)C2(C)Cn3nc(C(=O)NCc4ccccc4C)cc3C(=O)N2C)cc1 (stereo unspecified) |
| 670 s | CCS(=O)(=O)N1CCC[C@@H]2CN3CCc4cc(OC)ccc4[C@@H]3C[C@@H]21 |
| 912 s | COCc1cc(=O)n(Cc2cc(C)ccc2C)c(N2CCCC2)n1 |
| 871 s | Cn1nc(-c2nc(C3CC3)no2)c2c1CCN(C(=O)Nc1ccccc1Cl)C2 |
| 918 s | Cc1nc(C(=O)Nc2ccc(F)c(C)c2)c(C)o1 |
| 893 s | Cc1nnc(-c2cn(CC(=O)Nc3cccc(Br)c3)c3ccccc23)o1 |
| 728 s | CSc1cccc(NC(=O)COc2cccc(-c3nnc4n3CCCC4)c2)c1 |
| 1170 s | CCn1c(=O)oc2cc(-c3noc(-c4ccc(Cl)cc4OC)n3)ccc21 |
| 1030 s | Cc1ccc(-c2nnc(-c3cccc(S(=O)(=O)NCc4cccs4)c3)o2)cc1 |
| 669 s | Cc1ccc2c(c1)N(C)N=C(C(=O)N1CCOCC1)S2(=O)=O |
| 709 s | Cc1ccnc(N2CCCC(C(=O)NCCSCc3ccco3)C2)n1 (stereo unspecified) |
| 885 s | O=C(Nc1ccc(OCc2nnc(-c3ccccc3)o2)cc1)C1CCCC1 |
| 555 s | Cc1cc2n(n1)CCCN2C(=O)CCC(=O)N1CCN(c2ccccn2)CC1 |
| 841 s | CCNC(=O)c1cc(N2CCCC2)nc2ccccc12 |
| 594 s | CCC(C)NC(=O)N1CCc2c(c(-c3nc(-c4ccc(F)cc4)no3)nn2C)C1 (stereo unspecified) |
| 787 s | CCC(C)C(NC(=O)c1cc(F)cc(F)c1)C(=O)Nc1nc2ccccc2[nH]1 (stereo unspecified) |

| RP-LC retention time | Structure (SMILES) |
| --- | --- |
| 605 s | CC(=O)Nc1c(C)nn(-c2ccccc2)c1N1CCC(C(=O)NCC2COCCO2)CC1 (stereo unspecified) |
| 790 s | COc1ccc(S(=O)(=O)CCc2noc(C(=O)NCc3cc(OC)c(OC)c(OC)c3)n2)cc1 |
| 898 s | COc1ccc(Cl)cc1NC(=O)Cn1ccc2ccc(-c3nnc(C)o3)cc21 |
| 1130 s | Cc1ccc(NC(=O)C2(c3ccc4c(c3)OC(F)(F)O4)CC2)nc1-c1cccc(C(=O)O)c1 |
| 961 s | Cc1ccc(NC(=O)c2cn(-c3cc(N4CCCC4)ncn3)cn2)c(C)c1 |
| 605 s | O=C1[C@H]2CN(Cc3ccncc3)C[C@H]2C(=O)N1Cc1ccc2c(c1)OCO2 |
| 789 s | Cn1cnc2c(F)c(Nc3ccc(Br)cc3Cl)c(C(=O)NOCCO)cc21 |
| 1120 s | COc1ccc(-c2nc(-c3cccc(-c4ccnn4C)c3)no2)cc1 |
| 667 s | O=C(COc1ccc(F)cc1)NCC1(O)CCCC1 |
| 596 s | Nc1ccc(-c2nc3nc(N)nc(N)c3nc2-c2ccc(N)cc2)cc1 |
| 730 s | COC(=O)C1=CN(c2ccc(N(C)C)cc2)c2ccc(F)cc2S1(=O)=O |
| 627 s | CC1CN=C2C=C(N3CCN(S(=O)(=O)Cc4cccc(Cl)c4)CC3)N=CN21 (stereo unspecified) |
| 752 s | O=C(Cc1nnc(-c2ccc3ncccc3c2)o1)NCc1ccc(F)cc1Cl |
| 723 s | O=C(Nc1cccc(F)c1)c1c(O)c2cccnc2n(-c2cccc(F)c2)c1=O |
| 598 s | Cc1ncsc1CN1CCCC(c2nc(C(C)C)no2)CCNC(=O)CC1 (stereo unspecified) |
| 662 s | CCc1cccc(C)c1NC(=O)CSc1ccc(N2CCCC(C(=O)NC3CC3)C2)nn1 (stereo unspecified) |
| 638 s | Cn1c(=O)n(CCN2CCOCC2)c(=O)c2c1nc1n2CCCN1c1ccc(Br)cc1 |
| 805 s | O=C(CCCN1CCC(O)(c2cccc(C(F)(F)F)c2)CC1)c1ccc(F)cc1 |
| 956 s | Cc1ccc(-c2nc(CCN(C)C(=O)NCCc3ccccc3)no2)cc1 |
| 764 s | CC(CNC(=O)C1CCN(S(=O)(=O)c2cn(C(C)C)cn2)CC1)c1ccccc1 (stereo unspecified) |
| 927 s | COC(=O)c1cccc(NC(=O)c2sc(-c3cn(C)c4ncccc34)nc2C)c1 |
| 750 s | O=C(Cn1cc(S(=O)(=O)N2CCOCC2)ccc1=O)N1CCCc2ccccc21 |
